From PMC12833730, “Discovery of a First‐in‐Class Covalent Allosteric SHP1 Inhibitor with Immunotherapeutic Activity” (Angewandte Chemie (International Ed. in English), 2025) come the findings set out here.

The structures appear in SMILES notation. Several values for one entry are separate records, joined by “and”; a condition that tells them apart may be missing. Identical values can stand only once. Entries after “also recorded” stand apart in the source; their conditions may differ. Like-named read-outs stand apart in the source and are kept apart here.

In data set [1] the target is T1, SHP1 (Homo sapiens, UniProt P29350).
T1 construct: SHP1, residues 245-543; made in house; host or cells: E. coli BL21(DE3)
T1 sequence (P29350 245-543): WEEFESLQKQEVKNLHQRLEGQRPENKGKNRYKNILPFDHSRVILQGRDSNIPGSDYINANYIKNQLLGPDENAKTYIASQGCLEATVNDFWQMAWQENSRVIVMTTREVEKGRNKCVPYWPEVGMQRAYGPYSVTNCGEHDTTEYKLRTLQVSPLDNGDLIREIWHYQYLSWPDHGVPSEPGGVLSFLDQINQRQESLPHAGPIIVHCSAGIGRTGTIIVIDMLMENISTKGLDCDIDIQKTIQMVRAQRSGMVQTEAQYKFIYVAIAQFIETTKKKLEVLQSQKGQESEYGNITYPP
Put plainly: Time-course pNPP progress-curve inactivation kinetics. The note with it: for k inact/K I for SHP1 inactivation: time-course pNPP assay. Type of data set: biochemical. The text has this:
Covalent inhibitors generally inactivate their targets through a two‐step process, starting with a reversible binding event (characterized by the dissociation constant K I) and followed by covalent bond formation (represented by the first‐order rate constant of inactivation k inact). Although IC50 values are often utilized to assess the potency of covalent inhibitors, the second‐order rate constant k inact/K I is preferred because it provides a measure of covalent inhibition in a time‐ and dose‐independent manner.^[ [60], [62], [67], [68] ^] Because k inact/K I measurement can be time and labor‐intensive, we developed an efficient method to determine the observed first‐order rate constant (k obs) from the analysis of a progress curve in the presence of an inhibitor.^[ [69] ^] The k obs value is then plotted as a function of inhibitor concentration to obtain the kinetic parameters k inact, K I, and k inact/K I.^[ [70] ^] […] To verify SHP1 covalent modification by Z57117023, we ascertained SHP1 covalent adduct formation by intact protein liquid chromatography‐mass spectrometry (LC‐MS).^[ [58] ^] A single SHP1‐Z57117023 adduct was observed when SHP1 was incubated with Z57117023, with a mass shift of 295.21 Da (calculated 295.54 Da) (Figure 1e), consistent with the loss of a chlorine atom from Z57117023.
Phosphatase Activity Assay: To determine the inhibition kinetics of acquired hits, repurchased compounds from Enamine were serially diluted in a 96-well plate followed by the addition of pNPP at Km concentrations of corresponding proteins. The reaction was initiated by the addition of 20 nM proteins, and the reaction progression was monitored at OD405 using a CLARIOstar Plus Microplate Spectrophotometer (BMG Labtech) for 60 minutes. After background subtraction, the obtained progress curves were fitted to the equation A = v0(1-e^-kt)/k, where A is the absorbance at 405 nm, v0 is the initial rate, k is the kobs of the corresponding reaction. The acquired kobs was then plotted against inhibitor concentrations, which were fitted to kobs = kinact[I]/(KI+[I]), where kinact is the maximum rate of inactivation, [I] is the inhibitor concentration, and KI is the reversible binding affinity of the compound to the protein. Data were fitted using Prism GraphPad 10.1.1.

Data set [2] can be described thus: Intrinsic reactivity toward GSH, LC-MS. Type of data set: physicochemical. The method, then: (§1) The moderate half‐life in the presence of excessive GSH implied the low intrinsic reactivity of Z57117023. e) SHP1 protein was incubated with or without Z57117023 in 3,3‐dimethylglutarate buffer (pH = 7.0) for 60 min at room temperature to form a covalent adduct.
(§2) The area under the curve (AUC) of each measurement was normalized to 10 µM compounds to calculate the percent remaining. Data were fitted using Prism GraphPad 10.1.1.

The test system of data set [3] is GSH. The data set can be described thus: Intrinsic reactivity toward GSH, LC-MS. The data set is classed as physicochemical. The conditions noted are these: GSH in 3,3-dimethylglutarate (DMG) buffer, LC-MS. Here is the method:
as §1, §2

Data set [4] concerns the target T1, SHP1. The data set can be described thus: Intact protein LC-MS covalent adduct formation. Type of data set: binding. The note with it: 60 min, room temperature, pH 7.0; single adduct. The method, then: as §1
Covalent inhibitors generally inactivate their targets through a two‐step process, starting with a reversible binding event (characterized by the dissociation constant K I) and followed by covalent bond formation (represented by the first‐order rate constant of inactivation k inact). Although IC50 values are often utilized to assess the potency of covalent inhibitors, the second‐order rate constant k inact/K I is preferred because it provides a measure of covalent inhibition in a time‐ and dose‐independent manner.^[ [60], [62], [67], [68] ^] […] A single SHP1‐Z57117023 adduct was observed when SHP1 was incubated with Z57117023, with a mass shift of 295.21 Da (calculated 295.54 Da) (Figure 1e), consistent with the loss of a chlorine atom from Z57117023.
The mixtures were centrifuged to remove the unfolded SHP1 proteins, and the supernatants were spiked with a control protein CDC14A, followed by loading into SDS‐PAGE gels to quantify the relative SHP1 level.

Data set [5] has as its target T1, SHP1. Put plainly: Vanadate protection jump-dilution experiment. The data set is classed as biochemical. The method, then:
To further understand the mode of M029 action and ascertain whether M029 binds the SHP1 active site or a yet undefined novel site in SHP1, we performed a vanadate (VO4 ^3−) protection experiment. Vanadate is a reversible and competitive PTP inhibitor,^[ [76], [77] ^] and thus excessive vanadate would be expected to fully occupy the PTP active site and prevent covalent modifications of residues within the active site pocket. In this assay, SHP1 was co‐incubated with 30 µM M029 and 500 µM sodium orthovanadate or vehicle control for 30 min. The SHP1‐inhibitor complex was then rapidly diluted 100‐fold into a buffered solution containing 10 mM pNPP, and immediately, the absorbance at 405 nm was monitored over time to determine the remaining phosphatase activity.

Data set [6] concerns B16-F10. Put plainly: CCK8 cytotoxicity. The data set is classed as cell-based. The note with it: up to 50 µM, 24 hours. The method, then: (§3) Figure S3. Cancerous cells (MC38, EO771, and B16-F10), non-cancerous cells (HEK293), and immune cells (Jurkat and Raw264.7) were treated with M029 at different doses for 24 hours, and the cell viability was determined by the CCK8 experiments using DMSO-treated cells as a control. […] Results were analyzed using GraphPad Prism 10.4.2. The figure is plotted as average ± standard error of the mean (SEM).
(§4) Cytotoxicity: HEK293, MC38, EO771, RAW264.7 cells in DMEM media [supplemented with 10% (v/v) fetal bovine serum and penicillin (100 units/ml)/streptomycin (100 μg/ml)] and Jurkat T cells in RPMI 1640 media [supplemented with 10% (v/v) fetal bovine serum and penicillin (50 units/ml)/streptomycin (50 μg/ml)] were dispensed in clear flat-bottom 96-well plates at the density of 5,000 cells per well and culture for 16 hours under 37 °C with 5% CO2. M029 of different concentrations or DMSO was added to each well, followed by additional incubation for 24 hours. All wells were then treated with 5 µL of CCK8 reagent (Abcam, #ab228554) followed by 4 hours of incubation. OD460 of the reaction mixture was detected using a Spectra MAX340 microplate spectrophotometer (Molecular Devices) and was used to determine the percent growth inhibition of M029 on each cell line. Data were fitted using Prism GraphPad 10.1.1.

The subject of data set [7] is EO771. Put plainly: CCK8 cytotoxicity. Type of data set: cell-based. The conditions noted are these: up to 50 µM, 24 hours. Here is the method: as §3, §4
Data set [8] relates to HEK293. Put plainly: CCK8 cytotoxicity. Type of data set: cell-based. The conditions noted are these: up to 50 µM, 24 hours. Here is the method: as §3, §4
The test system of data set [9] is Jurkat T cells. The data set can be described thus: CCK8 cytotoxicity. The data set is classed as cell-based. The conditions noted are these: up to 50 µM, 24 hours. The method, then:
as §3, §4

The test system of data set [10] is MC38. The data set can be described thus: CCK8 cytotoxicity. The conditions noted are these: up to 50 µM, 24 hours. Type of data set: cell-based. Here is the method:
as §3, §4

Data set [11] deals with Raw264.7 cells. The data set can be described thus: CCK8 cytotoxicity. The data set is classed as cell-based. The note with it: up to 50 µM, 24 hours. The method, then:
as §3, §4

[12] abbreviates: pH 7, 100-fold excess GSH, pH 7.0, room temperature, read-out: half-life (t1/2) toward excess GSH (converted).

The compound `N#Cc1ccsc1NS(=O)(=O)c1ccc(NC(=O)CCl)cc1` [M029, 2-Chloro-N-(4-(N-(3-cyanothiophen-2-yl)sulfamoyl)phenyl)acetamide] showed a k inact in data set [1] (pH 7.0, room temperature) of 0.0038 ± 0.008 s⁻¹. Moreover, the KI (inactivation) in data set [1] (pH 7.0, room temperature, read-out: K I) was 76.7 ± 12.5 µM. Moreover, the “k inact/K I for SHP1 inactivation” value in [1] worked out at 49.55 M⁻¹ s⁻¹. For the same compound, the “k inact/K i fold higher than that of Z57117023” value in [1] (vs Z57117023) is on record as 13 fold. For the same compound, the “fold less reactive toward GSH than Z57117023” value in data set [2] (vs Z57117023) is on record as 5 fold. In addition, the half-life at 10 µM in data set [3] (setting [12]) was 34.3 h. Also, in [4], the “mass shift of SHP1 covalent adduct” value was 319.31 ± 1.14 Da and 319.31 Da. In data set [5] (30 µM M029 + 500 µM sodium orthovanadate, 30 min, 100-fold dilution), the “SHP1 protection from inactivation by vanadate” value is reported as “did not show a significant difference; also recorded: not protected from M029 inactivation”. The “residual phosphatase activity after 100-fold jump dilution, compound alone” value in data set [5] (30 µM M029, 30 min) is given as “Little residual phosphatase activity”. Besides, the “cytotoxicity, B16-F10” value in data set [6] is reported as “No significant toxicity; also recorded: no significant cytotoxicity”. Further, the “cytotoxicity, EO771” value in data set [7] is “No significant toxicity; also recorded: no significant cytotoxicity”. In addition, the “cytotoxicity, HEK293” value in data set [8] is “No significant toxicity; also recorded: no significant cytotoxicity”. In [9], the “cytotoxicity, Jurkat T cells” value is listed as “No significant toxicity; also recorded: no significant cytotoxicity”. Also, the “cytotoxicity, MC38” value in data set [10] is listed as “No significant toxicity; also recorded: no significant cytotoxicity”. Also, in [11], the “cytotoxicity, Raw264.7” value is “No significant toxicity; also recorded: no significant cytotoxicity”.
As to `O=C(CCl)Nc1ccc(S(=O)(=O)Nc2nccs2)cc1` [Z57117023, 2-chloro-N-(4-(N-(thiazol-2-yl)sulfamoyl)phenyl)acetamide], the “k inact/K I for SHP1 inactivation” value in data set [1] was 3.792 M⁻¹ s⁻¹. Also, the “reactivity toward GSH (in words)” value in data set [2] was “minimal reactivity toward GSH”. Further, the half-life at 10 µM was 7.07 ± 0.918 h in [3] (pH 7, 100-fold excess GSH, 3,3-dimethylglutarate buffer pH 7.0, room temperature, read-out: half-life with GSH) and roughly 7.1 h in data set [3] (setting [12]). Also, the “mass shift of SHP1 covalent adduct” value in data set [4] was determined as 295.21 Da.
